Data from patent US20100286145A1, “ISOPHTHALAMIDE DERIVATIVES INHIBITING BETA-SECRETASE ACTIVITY” (CoMentis, Inc., priority 2007, published 2010).

The molecules below were run against memapsin 2 (Homo sapiens, UniProt P56817) (assay: Inhibition of memapsin 2 beta-secretase activity (fluorogenic substrate FS-2)). Conditions: memapsin 2, pH 4, 37° C., 20 minutes pre-incubation; read-out: M2Ki.
memapsin 2, sequence (P56817 46-501): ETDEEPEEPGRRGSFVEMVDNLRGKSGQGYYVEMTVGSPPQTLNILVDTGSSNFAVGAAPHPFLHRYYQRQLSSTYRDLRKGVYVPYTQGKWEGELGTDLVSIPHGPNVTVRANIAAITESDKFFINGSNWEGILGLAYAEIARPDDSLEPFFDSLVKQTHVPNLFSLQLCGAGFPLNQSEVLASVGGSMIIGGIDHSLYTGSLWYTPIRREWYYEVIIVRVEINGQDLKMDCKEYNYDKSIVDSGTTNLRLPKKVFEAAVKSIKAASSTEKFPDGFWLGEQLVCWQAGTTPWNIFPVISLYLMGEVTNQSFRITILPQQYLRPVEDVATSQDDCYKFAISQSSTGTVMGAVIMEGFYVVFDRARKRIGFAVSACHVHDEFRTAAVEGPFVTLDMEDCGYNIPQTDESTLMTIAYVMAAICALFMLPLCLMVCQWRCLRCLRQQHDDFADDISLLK
Format: biochemical
Method: Potency of compounds were determined by measurement of their inhibition of memapsin 2 activity toward a fluorescent substrate. Kinetic inhibition experiments were performed using the procedure as described in Ermolieff, et al. (Biochemistry 39:12450-12456 (2000), the teachings of which are incorporated hereby in their entirety). Briefly, assays were performed at pH 4, 37° C., by pre-incubation of memapsin 2 enzyme with compound for 20 minutes. Activity measurements were initiated by addition of a fluorogenic substrate FS-2 (Bachem Americas, Torrance, Calif.) MCA-SEVNLDAEFR-DNP (SEQ ID NO.: 2). The substrate was derived from 10 amino acids of the human amyloid precursor protein (APP), with the Swedish variant amino acids at the beta-secretase cleavage site. The terminal amino acid was modified from arginine to lysine to facilitate derivatization with a functional group for detection by autofluorescence. The amino acid sequence of the “core” peptide of the substrate is SEVNLDAEFK (SEQ ID NO.: 3). The amino terminus was derivatized with (7-methoxycoumarin-4-yl)acetyl (MCA), and the epsilon amine of the lysine side chain of the terminal residue (K in sequence SEVNLDAEFK (SEQ ID NO.: 3)) was derivatized with 2,4-dinitorphenyl (DNP).
Fluorescent signal increase over time was measured as a rate of hydrolysis of the peptide substrate. Inhibition of hydrolytic rate was expressed relative to uninhibited controls and fit to a model for tight-binding inhibitors (J. Bieth, in “Proteinase Inhibitors,” Bayer Symposium V, 463-469, 1974, which is herein incorporated by reference for all purposes in its entirety).
A Ki greater than 501 nM was found for `COCCn1ncc(CNC[C@@H](O)[C@H](Cc2ccccc2)NC(=O)c2cccc(C(=O)N(C)Cc3nc(C)cs3)c2)c1C` [Compound 132, N1-((2S,3R)-3-hydroxy-4-((1-(2-methoxyethyl)-5-methyl-1H-pyrazol-4-yl)methylamino)-1-phenylbutan-2-yl)-N3-methyl-N3-((4-methylthiazol-2-yl)methyl)isophthalamide] in this work.
A Ki greater than 501 nM was found for `C[C@@H](NC(=O)c1cc(C(=O)N[C@@H](Cc2ccccc2)[C@H](O)CNCc2cnn(C(C)(C)C)c2)cc(N(C)S(C)(=O)=O)c1)c1ccccc1` [Compound 138, N1-((2S,3R)-4-((1-tert-butyl-1H-pyrazol-4-yl)methylamino)-3-hydroxy-1-phenylbutan-2-yl)-5-(N-methylmethylsulfonamido)-N3-((R)-1-phenylethyl)isophthalamide] in this work.
A Ki greater than 501 nM was found for `COC(=O)c1ccc(CNC[C@@H](O)[C@H](Cc2ccccc2)NC(=O)c2cccc(C(=O)N(C)Cc3nc(C)cs3)c2)nc1C` [Compound 36, methyl 6-(((2R,3S)-2-hydroxy-3-(3-(methyl((4-methylthiazol-2-yl)methyl)carbamoyl)benzamido)-4-phenylbutylamino)methyl)-2-methylnicotinate] in this work.
A Ki greater than 501 nM was found for `COc1cccc(CNC[C@@H](O)[C@H](Cc2ccccc2)NC(=O)c2cc(NO)cc(C(=O)N[C@H](C)c3ccccc3)c2)c1` [Compound 123, N1-((2S,3R)-3-hydroxy-4-(3-methoxybenzylamino)-1-phenylbutan-2-yl)-5-(hydroxyamino)-N3-((R)-1-phenylethyl)isophthalamide] in this work.
A Ki of 301 to 500 nM was found for `Cc1c(CNC[C@@H](O)[C@H](Cc2ccccc2)NC(=O)c2cc(C(=O)N[C@H](C)c3ccccc3)cc(N(C)S(C)(=O)=O)c2)cnn1C(C)(C)C` [Compound 120, N1-((2S,3R)-4-((1-tert-butyl-5-methyl-1H-pyrazol-4-yl)methylamino)-3-hydroxy-1-phenylbutan-2-yl)-5-(N-methylmethylsulfonamido)-N3-((R)-1-phenylethyl)isophthalamide] in this work.
A Ki greater than 501 nM was found for `COc1cccc(CNC[C@@H](O)[C@H](Cc2ccccc2)NC(=O)c2cc(C(=O)NCc3nccc(C)n3)cc(N(C)S(C)(=O)=O)c2)c1` [Compound 105, N1-((2S,3R)-3-hydroxy-4-(3-methoxybenzylamino)-1-phenylbutan-2-yl)-5-(N-methylmethylsulfonamido)-N3-((4-methylpyrimidin-2-yl)methyl)isophthalamide] in this work.
A Ki of 301 to 500 nM was found for `Cc1csc(CN(C)C(=O)c2cccc(C(=O)N[C@@H](Cc3ccccc3)[C@H](O)CNCc3cccc4ccccc34)c2)n1` [Compound 35, N1-((2S,3R)-3-hydroxy-4-(naphthalen-1-ylmethylamino)-1-phenylbutan-2-yl)-N3-methyl-N3-((4-methylthiazol-2-yl)methyl)isophthalamide] in this work.
A Ki of less than 300 nM was found for `CCCN(Cc1nc(C)cs1)C(=O)c1cc(OC)cc(C(=O)N[C@@H](Cc2ccccc2)[C@H](O)CNCc2cccc(OC)c2)c1` [Compound 20, N1-((2S,3R)-3-hydroxy-4-(3-methoxybenzylamino)-1-phenylbutan-2-yl)-5-methoxy-N3-((4-methylthiazol-2-yl)methyl)-N3-propylisophthalamide] in this work.
A Ki of less than 300 nM was found for `COc1cccc(CNC[C@@H](O)[C@H](Cc2ccccc2)NC(=O)c2cc(C(=O)N(C)Cc3nc(C)cs3)cc(-c3ccncc3)c2)c1` [Compound 203, N1-((2S,3R)-3-hydroxy-4-(3-methoxybenzylamino)-1-phenylbutan-2-yl)-N3-methyl-N3-((4-methylthiazol-2-yl)methyl)-5-(pyridin-4-yl)isophthalamide] in this work.
A Ki greater than 501 nM was found for `COc1ccnc(CNC[C@@H](O)[C@H](Cc2ccccc2)NC(=O)c2cccc(C(=O)N(C)Cc3nc(C)cs3)c2)n1` [Compound 48, N1-((2S,3R)-3-hydroxy-4-((4-methoxypyrimidin-2-yl)methylamino)-1-phenylbutan-2-yl)-N3-methyl-N3-((4-methylthiazol-2-yl)methyl)isophthalamide] in this work.

Same assay, conditions: memapsin 2, pH 4, 37° C., fluorogenic substrate FS-2; read-out: M2Ki
A Ki of less than 300 nM was found for `COc1cccc([C@@H](C)NC[C@@H](O)[C@H](Cc2ccccc2)NC(=O)c2cc(C(=O)N(C)Cc3nc(C)cs3)cc(-c3ncco3)c2)c1` [Compound 290, N1-((2S,3R)-3-hydroxy-4-((R)-1-(3-methoxyphenyl)ethylamino)-1-phenylbutan-2-yl)-N3-methyl-N3-((4-methylthiazol-2-yl)methyl)-5-(oxazol-2-yl)isophthalamide] in this work.
A Ki of less than 300 nM was found for `C=C(C)c1cncc(CNC[C@@H](O)[C@H](Cc2ccccc2)NC(=O)c2cccc(C(=O)N(C)Cc3nc(CO)cs3)c2)c1` [Compound 319, N1-((2S,3R)-3-hydroxy-1-phenyl-4-((5-(prop-1-en-2-yl)pyridin-3-yl)methylamino)butan-2-yl)-N3-((4-(hydroxymethyl)thiazol-2-yl)methyl)-N3-methylisophthalamide] in this work.
A Ki of less than 300 nM was found for `CN(Cc1nc(C(F)F)cs1)C(=O)c1cccc(C(=O)N[C@@H](Cc2ccccc2)[C@H](O)CNCc2cncc(C(C)(C)F)c2)c1` [Compound 286, N1-((4-(difluoromethyl)thiazol-2-yl)methyl)-N3-((2S,3R)-4-((5-(2-fluoropropan-2-yl)pyridin-3-yl)methylamino)-3-hydroxy-1-phenylbutan-2-yl)-N1-methylisophthalamide] in this work.
A Ki greater than 501 nM was found for `COc1cccc(S(=O)(=O)NC[C@@H](O)[C@H](Cc2ccccc2)NC(=O)c2cccc(C(=O)N(C)Cc3nc(C)cs3)c2)c1` [Compound 309, N1-((2S,3R)-3-hydroxy-4-(3-methoxyphenylsulfonamido)-1-phenylbutan-2-yl)-N3-methyl-N3-((4-methylthiazol-2-yl)methyl)isophthalamide] in this work.
A Ki greater than 501 nM was found for `COc1ccc(C(F)(F)F)cc1CNC[C@@H](O)[C@H](Cc1ccccc1)NC(=O)c1cccc(C(=O)N(C)Cc2nc(C)cs2)c1` [Compound 282, N1-((2S,3R)-3-hydroxy-4-(2-methoxy-5-(trifluoromethyl)benzylamino)-1-phenylbutan-2-yl)-N3-methyl-N3-((4-methylthiazol-2-yl)methyl)isophthalamide] in this work.
A Ki of less than 300 nM was found for `Cc1csc(CN(C)C(=O)c2cccc(C(=O)N[C@@H](Cc3ccccc3)[C@H](O)CNCc3cncc(C(C)CO)c3)c2)n1` (stereo partly drawn) [Compound 313, N1-((2S,3R)-3-hydroxy-4-((5-(1-hydroxypropan-2-yl)pyridin-3-yl)methylamino)-1-phenylbutan-2-yl)-N3-methyl-N3-((4-methylthiazol-2-yl)methyl)isophthalamide] in this work.
A Ki greater than 501 nM was found for `Cc1csc(CN(C)C(=O)c2cccc(C(=O)N[C@@H](Cc3ccccc3)[C@H](O)CNS(=O)(=O)c3cccc(C(F)(F)F)c3)c2)n1` [Compound 310, N1-((2S,3R)-3-hydroxy-1-phenyl-4-(3-(trifluoromethyl)phenylsulfonamido)butan-2-yl)-N3-methyl-N3-((4-methylthiazol-2-yl)methyl)isophthalamide] in this work.
A Ki of less than 300 nM was found for `CC(C)c1cncc(CNC[C@@H](O)[C@H](Cc2ccccc2)NC(=O)c2cccc(C(=O)N(C)Cc3nc(CO)cs3)c2)c1` [Compound 316, N1-((2S,3R)-3-hydroxy-4-((5-isopropylpyridin-3-yl)methylamino)-1-phenylbutan-2-yl)-N3-((4-(hydroxymethyl)thiazol-2-yl)methyl)-N3-methylisophthalamide] in this work.
